According to patent publication US11285218B2, “Degradation of bromodomain-containing protein 9 (BRD9) by conjugation of BRD9 inhibitors with E3 ligase ligand and methods of use” (Dana-Farber Cancer Institute, Inc., priority 2016, dated 2022):

Tests used:
[1] = molecular target: BRD9:CRBN-DDB1 protein complex (Homo sapiens, UniProt Q96SW2+Q9H8M2); test: BRD9:CRBN-DDB1 dimerization assay (luminescence); conditions: for BRD9:CRB9-DDB1 AUC / BRD9:CRB9-DDB1 Cmax: luminescence detection of dimerization assay; for formation of the BRD9:CRBN-DDB1 protein complex: relative to unmodified thalidomide, in words
BRD9:CRBN-DDB1 protein complex, sequence (Q96SW2 whole entry, one chain of several): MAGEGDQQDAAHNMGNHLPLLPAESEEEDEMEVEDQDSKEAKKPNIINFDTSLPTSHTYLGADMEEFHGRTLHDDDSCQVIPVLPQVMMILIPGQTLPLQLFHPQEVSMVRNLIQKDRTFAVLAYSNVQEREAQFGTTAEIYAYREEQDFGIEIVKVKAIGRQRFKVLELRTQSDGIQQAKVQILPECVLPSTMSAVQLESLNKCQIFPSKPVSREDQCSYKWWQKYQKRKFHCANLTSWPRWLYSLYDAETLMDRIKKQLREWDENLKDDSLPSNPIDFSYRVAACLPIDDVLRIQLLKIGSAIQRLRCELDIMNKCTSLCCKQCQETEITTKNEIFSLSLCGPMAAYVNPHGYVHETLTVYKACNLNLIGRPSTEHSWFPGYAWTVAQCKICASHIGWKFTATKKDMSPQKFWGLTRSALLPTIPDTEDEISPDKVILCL
BRD9:CRBN-DDB1 protein complex, sequence (Q16531 whole entry partner, one chain of several): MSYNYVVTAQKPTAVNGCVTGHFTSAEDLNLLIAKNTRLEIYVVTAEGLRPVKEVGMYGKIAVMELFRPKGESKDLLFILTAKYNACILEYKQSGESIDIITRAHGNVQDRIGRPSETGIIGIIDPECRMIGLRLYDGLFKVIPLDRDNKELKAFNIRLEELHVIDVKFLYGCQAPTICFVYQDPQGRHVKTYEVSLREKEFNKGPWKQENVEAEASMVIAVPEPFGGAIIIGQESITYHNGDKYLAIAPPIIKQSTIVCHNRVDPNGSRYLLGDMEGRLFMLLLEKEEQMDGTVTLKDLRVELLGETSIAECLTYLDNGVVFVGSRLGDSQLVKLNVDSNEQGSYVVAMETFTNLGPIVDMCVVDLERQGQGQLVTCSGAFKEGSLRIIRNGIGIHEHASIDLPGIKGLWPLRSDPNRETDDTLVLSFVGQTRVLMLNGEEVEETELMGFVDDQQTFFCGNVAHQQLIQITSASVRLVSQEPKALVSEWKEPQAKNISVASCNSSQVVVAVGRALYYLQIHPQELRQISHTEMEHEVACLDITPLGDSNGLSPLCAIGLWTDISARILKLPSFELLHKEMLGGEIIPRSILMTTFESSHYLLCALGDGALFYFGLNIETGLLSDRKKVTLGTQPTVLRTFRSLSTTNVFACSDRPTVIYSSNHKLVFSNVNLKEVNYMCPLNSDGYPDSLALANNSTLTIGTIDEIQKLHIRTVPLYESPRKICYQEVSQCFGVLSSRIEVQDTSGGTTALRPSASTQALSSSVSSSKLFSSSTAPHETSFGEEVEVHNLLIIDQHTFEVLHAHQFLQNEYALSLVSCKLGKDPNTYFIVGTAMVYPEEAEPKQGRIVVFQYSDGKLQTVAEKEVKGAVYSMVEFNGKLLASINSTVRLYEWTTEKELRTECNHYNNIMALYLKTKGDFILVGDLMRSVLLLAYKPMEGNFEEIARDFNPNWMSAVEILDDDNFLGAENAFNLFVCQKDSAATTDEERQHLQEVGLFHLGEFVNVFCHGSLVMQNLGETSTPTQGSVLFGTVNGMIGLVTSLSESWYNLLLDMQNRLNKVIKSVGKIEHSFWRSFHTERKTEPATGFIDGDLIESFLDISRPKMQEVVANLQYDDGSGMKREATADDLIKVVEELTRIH
Description: To measure this activity, a homogenous luminescence assay was developed to report on compound-induced proximity of BRD9 and CRBN.
To detect CRBN-DDBI/BRD4 dimerization, we adapted bead-based AlphaScreen technology. […] Compounds were then pinned at 100 nL per well from DMSO stock. After 1 incubation at room temperature. Nickel Chelate AlphaLISA Acceptor and Glutathione AlphaLISA Donor beads (PerkinElmer) were diluted in assay buffer to 20 μg/mL and added at 20 μl per well.

BRD9 [2] = molecular target: T1, BRD9 (Homo sapiens, UniProt Q9H8M2); test: BRD9-ligand displacement AlphaScreen; assay type: binding
T1 construct: A construct of human BRD9 covering residues 134-0245 in the pET28PP vector; made in house; host or cells: E. coli BL21 (DE3)
T1 sequence (Q9H8M2 134-245 limits assumed): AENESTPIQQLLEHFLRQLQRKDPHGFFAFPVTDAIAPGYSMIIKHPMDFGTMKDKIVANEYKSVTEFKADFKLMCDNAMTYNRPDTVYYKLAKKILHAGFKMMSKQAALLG
Description: BRD9 assays were performed with minimal modifications from the manufacturer's protocol (PerkinElmer, USA). All reagents were diluted in 50 mM HEPES, 150 mM NaCl, 0.1% w/v BSA, 0.01% w/v Tween20, pH 7.5. […] Plates were spun down at 150×g, and 100 nL of DMSO compound stock was added from pre-diluted plates by pin transfer using a Janus Workstation (PerkinElmer, USA). Under low light, a 2× suspension of Ni-coated Acceptor Beads and Streptavidin Donor Beads, was then added at 10 ul/well to a final concentration of 5 μg/ml by EL406 automated liquid handler (Biotek, USA).

CRBN-DDB1 = molecular target: T2, CRBN-DDB1 (Homo sapiens, UniProt Q96SW2); test: CRBN-DDB1 ligand-displacement AlphaScreen; assay type: binding; conditions: for IC50: purified CRBN-DDB1 ligand displacement
T2 construct: made in house; host or cells: Sf9 cells (Invitrogen)
T2 sequence (Q96SW2 whole entry): as the sequence (Q96SW2 whole entry, one chain of several) above
T2 sequence (Q16531 whole entry partner): as the sequence (Q16531 whole entry partner, one chain of several) above
Description: Following a 30 min incubation, 20 uL detection solution containing Streptavidin Donor Beads and Nickel Chelate AlphaLISA® Acceptor Beads diluted to 20 ng/uL in assay buffer was added to each well.

BRD4(1) = BRD4(1) (Homo sapiens, UniProt O60885); test: BRD4(1) ligand-displacement AlphaScreen; assay type: binding; design: substituting protein and biotin-probe components for BRD4(1) protein at 20 nM final; His tag (inferred from Ni-coated acceptor beads)
BRD9 [3] = molecular target: T3, BRD9 (Homo sapiens, UniProt Q9H8M2); test: BRD9 immunoblot in MOLM-13; conditions: MOLM-13, 4 hour treatment, indicated concentrations; in words
T3 sequence (Q9H8M2 1-597): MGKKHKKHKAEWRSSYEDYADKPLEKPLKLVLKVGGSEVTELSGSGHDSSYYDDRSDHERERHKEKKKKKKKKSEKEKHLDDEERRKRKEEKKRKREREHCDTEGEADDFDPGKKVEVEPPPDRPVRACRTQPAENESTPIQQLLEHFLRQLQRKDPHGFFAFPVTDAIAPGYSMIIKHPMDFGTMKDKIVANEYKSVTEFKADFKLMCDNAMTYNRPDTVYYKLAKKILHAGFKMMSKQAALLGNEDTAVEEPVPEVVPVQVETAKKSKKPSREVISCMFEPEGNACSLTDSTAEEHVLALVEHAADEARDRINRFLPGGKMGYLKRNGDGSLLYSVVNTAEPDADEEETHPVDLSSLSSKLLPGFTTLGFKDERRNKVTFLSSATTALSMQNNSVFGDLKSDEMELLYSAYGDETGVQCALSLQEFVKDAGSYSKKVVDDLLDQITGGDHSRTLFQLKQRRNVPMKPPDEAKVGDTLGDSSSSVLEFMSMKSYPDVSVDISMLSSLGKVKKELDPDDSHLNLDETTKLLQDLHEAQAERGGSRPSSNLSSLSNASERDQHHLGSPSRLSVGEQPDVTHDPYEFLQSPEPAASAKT
Description: In additional experiments, cells were washed with PBS, before being lysed in RIPA buffer supplemented with 1×HALT™ protease inhibitor cocktail (Thermo Scientific) for 10 min on ice, followed by low-amplitude sonication for 10 seconds at 4° C. […] In soluble material was removed by centrifugation at 20,000×g for 20 min before protein content was quantified by BCA assay (Pierce). […] Blots were imaged using fluorescence-labeled secondary antibodies (LI-COR) on the OdysseyCLxImager (LI-COR).

BRD9 [4] = molecular target: T3, BRD9; test: BRD9 degradation / cellular activity (Western blot, cell line not stated); conditions: cell line not given

| Compound | BRD9:CRB9-DDB1 AUC [1] | BRD9:CRB9-DDB1 Cmax [1] [nM] | formation of the BRD9:CRBN-DDB1 protein complex [1] | IC50 (BRD9 [2]) [nM] | IC50 (CRBN-DDB1) [nM] | IC50 (BRD4(1)) [nM] | BRD9:CRBN-DDB1 dimerization, comparison in words [1] | BRD9 protein level (immunoblot) (BRD9 [3]) | CRBN-DDB1 affinity, in words (CRBN-DDB1; comparison of phthalimide linkages) | BRD9 degradation / cellular potency, in words (BRD9 [4]) |
| --- | --- | --- | --- | --- | --- | --- | --- | --- | --- | --- |
| COc1cc(-c2cn(C)c(=O)c3cnccc23)cc(OC)c1CN(C)CC(=O)NCCCCCCNc1ccc2c(c1)C(=O)N(C1CCC(=O)NC1=O)C2=O (stereo not shown) [Compound I-12] | 60256 | 8.39 | significantly induce formation of the complex | 56.6 | 8.5 | > 50000 | – | – | – | – |
| COc1cc(-c2cn(C)c(=O)c3cc(C(=N)NC4CCS(=O)(=O)CC4)sc23)ccc1OCC(=O)NCCCCCCCCNC(=O)COc1cccc2c1C(=O)N(C1CCC(=O)NC1=O)C2=O (stereo not shown) [Compound I-2] | 71477 | 95.1 | significantly induce formation of the complex | 18.9 | 43.7 | 3390 | improved dimerization relative to the short four-carbon linked compound I-1 | Marked protein loss | – | – |
| COc1cc(-c2cn(C)c(=O)c3cc(C(=N)NC4CCS(=O)(=O)CC4)sc23)ccc1OCC(=O)NCCCCCCOc1cccc2c1C(=O)N(C1CCC(=O)NC1=O)C2=O (stereo not shown) [Compound I-8] | 144813 | 111 | significantly induce formation of the complex | 30 | 20.1 | 7000 | further improved dimerization relative to compound I-2 | Marked protein loss | slightly improved binding over acetamide ethers I-1 and I-2 | – |
| COc1cc(-c2cn(C)c(=O)c3cnccc23)cc(OC)c1CN(C)CC(=O)NCCCCCCCCNC(=O)COc1cccc2c1C(=O)N(C1CCC(=O)NC1=O)C2=O (stereo not shown) [Compound I-24] | 58563 | 27.3 | significantly induce formation of the complex | 48 | 14.8 | > 50000 | – | – | – | – |
| COc1cc(-c2cn(C)c(=O)c3cc(C(=N)NC4CCS(=O)(=O)CC4)sc23)ccc1OCC(=O)NCCCOCCOCCOCCCNC(=O)COc1cccc2c1C(=O)N(C1CCC(=O)NC1=O)C2=O (stereo not shown) [Compound I-3] | 50182 | 44.9 | significantly induce formation of the complex | 36.5 | 49.5 | 3140 | reduced this activity | – | – | – |
| COc1cc(-c2cn(C)c(=O)c3cc(C(=N)NC4CCS(=O)(=O)CC4)sc23)ccc1OCC(=O)N1CCC(C2CCN(C(=O)COc3cccc4c3C(=O)N(C3CCC(=O)NC3=O)C4=O)CC2)CC1 (stereo not shown) [Compound I-7] | 107794 | 54.0 | significantly induce formation of the complex | 12.5 | 16 | 1510 | significant improvement | – | – | significant improvement |
| COc1cc(-c2cn(C)c(=O)c3cc(C(=N)NC4CCS(=O)(=O)CC4)sc23)ccc1OCC(=O)NCCCCCCCCNc1cccc2c1C(=O)N(C1CCC(=O)NC1=O)C2=O (stereo not shown) [Compound I-5] | 67227 | 37.4 | significantly induce formation of the complex | 15.5 | 10.8 | 1560 | – | effectively downregulate BRD9 over a broad range of concentrations | – | – |
| COc1cc(-c2cn(C)c(=O)c3cc(C(=N)NC4CCS(=O)(=O)CC4)sc23)ccc1OCC(=O)NCCCCCCCCNc1ccc2c(c1)C(=O)N(C1CCC(=O)NC1=O)C2=O (stereo not shown) [Compound I-9] | 46614 | 33.7 | significantly induce formation of the complex | 11.5 | 17.6 | 1110 | superior | – | – | superior |
| COc1cc(-c2cn(C)c(=O)c3cnccc23)cc(OC)c1CN(C)CC(=O)NCCCCCCCCNc1cccc2c1C(=O)N(C1CCC(=O)NC1=O)C2=O (stereo not shown) [Compound I-15] | 139380 | 8.22 | significantly induce formation of the complex | 83.1 | 8.35 | > 50000 | – | – | – | – |
| COc1cc(-c2cn(C)c(=O)c3cnccc23)cc(OC)c1CN(C)CC(=O)NCCOCCOCCOCC(=O)N[C@@H](C(=O)N1C[C@@H](O)C[C@@H]1C(=O)NCc1ccc(-c2scnc2C)cc1)C(C)(C)C [Compound I-23] | – | – | – | 43.2 | – | > 50000 | – | – | – | – |
| COc1cc(-c2cn(C)c(=O)c3cc(C(=N)NC4CCS(=O)(=O)CC4)sc23)ccc1OCC(=O)NCCCCNC(=O)COc1cccc2c1C(=O)N(C1CCC(=O)NC1=O)C2=O (stereo not shown) [Compound I-1] | 44270 | 42.5 | significantly induce formation of the complex | 13.5 | 48.9 | 3780 | – | – | – | – |
